Measurements as given in patent US20130281409A1, “Myelin Sheath Fatty Acids that Resolve Neuroinflammation” (priority 2012, published 2013).
“Also recorded” adds a separate entry of the source.

Tests used:
[1] = test system: lymph node cells and splenocytes; assay: PLP139-151-induced cytokine secretion by cells from PGPC-treated EAE mice; type: in vivo, mouse
Protocol: PLP-stimulated cells from PLP139-151-immunized mice administered PGPC prophylactically: SJL/J mice were co-injected with PGPC and PLP139-151 in CFA and sacrificed 48 days later. Lymph node cells and splenocytes were then harvested and re-stimulated in vitro (2.5×10^6 cells/ml) with 10 μg/ml of PLP139-151 or with media alone. PLP-stimulated cells from untreated PLP139-151-immunized mice: SJL/J mice were immunized with PLP139-151 in CFA and sacrificed 10 days later. Splenocytes were then harvested and re-stimulated in vitro (at 5×10^5 cells/ml) with 10 μg/ml of PLP139-151 in the presence of 30 μg/ml of POPS, PGPC, azPC ester, or azPC. Cytokine production by cells from the lymph nodes and spleens of PGPC co-immunized mice was measured after 66 hours of stimulation by using the BD OptEIA™ Mouse IFN-γ ELISA kit (BD Biosciences). Cytokine assays for the anti-CD3/anti-CD28 antibody-stimulated T cells and PLP139-151-stimulated splenocytes were performed on culture supernatants after 48 hours of stimulation using the BD OptEIA™ Mouse IL-6, IFN-γ, and TNF alpha ELISA kits (BD Biosciences) and the Mouse IL-17 DuoSet ELISA Development kit (R&D Systems).

[2] = test system: MBPAc1-11-TCR transgenic splenocytes; assay: MBPAc1-11-specific T-cell proliferation (3H-thymidine incorporation); type: cell-based, mouse; conditions: 30 μg/ml lipid, 2 μg/ml MBPAc1-11
Protocol: Splenocytes were harvested from mice transgenic for the MBPAc1-11-specific T-cell receptor and stimulated with 2 μg/ml of MBPAc1-11 in the presence of 30 μg/ml of lipid. Lymph nodes and spleens were also harvested from naive C57BL/6 mice, and CD3^+ T-cell enrichment columns (R&D systems) were used to isolate CD3^+ T cells. The purified CD3^+ T cells were stimulated with 5 μg/ml of plate-bound anti-CD3 antibodies and anti-CD28 antibodies in the presence of 30 μg/ml of POPS, PGPC, azPC ester, brain sulfatides, or azPC, 0.25 mM palmitic acid, or 100% ethanol (as the vehicle control). For assessment of proliferation, 1 μCi of ^3H-thymidine was added to each well for the final 18-24 hours of culture, and incorporation of radioactivity was measured by using a Betaplate scintillation counter. Cytokine assays were performed on culture supernatants after 24 (IL-12p40) or 48 hours (IFN-γ, IL-6, and TNF) of culture by using the BD OptEIA™ Mouse ELISA kits (BD Biosciences).
5×10^6 cells/ml were stimulated in vitro with 2 μg/ml of MBPAc1-11 in the presence of various concentrations of palmitic acid (Sigma), other lipids, or 100% Ethanol (vehicle alone).
For assessment of proliferation, 1 μCi of ^3H-thymidine was added to each well for the final 18 hours of culture, and incorporation of radioactivity was quantified using a Betaplate scintillation counter.

[3] = test system: EAE in PLP139-151-immunized SJL/J mice; assay: EAE, lipid or palmitic-acid treatment of established disease; type: in vivo, mouse
Protocol: Animal experiments were approved by, and performed in compliance with, the National Institute of Health guidelines of the Institutional Animal Care and Use Committee at Stanford University. For induction of EAE, 8- to 12-week-old female SJL/J mice (Jackson Laboratory) were immunized subcutaneously with 100 μg of PLP139-151 emulsified in CFA (Difco Laboratories). Lipid and palmitic-acid treatment: Administration of lipid, palmitic acid, or vehicle was initiated once the PLP139-151-immunized mice developed paralysis (representing clinical EAE) and repeated every other day, for a total of ten separate injections. 100 μg of POPS, PGPC, azPC ester, azPC, palmitic acid, or vehicle (0.05% Tween-20 in PBS) was administered in 0.2 ml intravenously in the tail. EAE treatment with lipid: 100 μg of PGPC or sphingomyelin or vehicle ([…] Tween-20 in PBS) was administered in 0.2 ml intravenously in the tail. Treatment with lipid or vehicle was initiated once the PLP139-151-immunized mice developed paralysis (representing clinical EAE) and repeated 3, 6, 12, and 18 days later, for a total of five separate injections.

[4] = test system: CD3+ T cells (gated on CD4+ T cells); assay: T-cell apoptosis, Annexin V and 7AAD staining; type: cell-based, mouse; conditions: 30 μg/ml lipid, anti-CD3 and anti-CD28, 48 hours
Protocol: FIG. 5. […] (C) TUNEL staining of brain and spinal-cord tissue from mice immunized with PLP139-151 peptide (to induce EAE) and treated for 12 h with azPC, POPS, or vehicle on day 15 after immunization. […] (D) Quantification of TUNEL-positive infiltrating cells in brain and spinal cord shown in panel (C). Cells were stained according to standard protocols, run on a FACScan flow cytometer (BD Biosciences), and analysed with CellQuest software (BD Immunocytometry Systems). The antibody conjugate used was FITC anti-CD4, clone GK1.5 (BD Pharmingen). 7AAD staining was performed by using the Annexin V-PE Apoptosis Detection Kit I (BD Pharmingen). Cells were stained according to standard protocols, run on a FACScan flow cytometer (BD Biosciences), and analysed with CellQuest software (BD Immunocytometry Systems) or with FlowJo software version 6.3.2 (Tree Star, Inc.).

[5] = test system: infiltrating cells in brain and spinal cord of mice with EAE; assay: TUNEL assay on brain and spinal cord of EAE mice; type: in vivo, mouse; conditions: 200 μg i.v. on day 15 after immunization
Protocol: Mice with EAE were treated intravenously with 200 μg of azPC, 200 μg of POPS, or vehicle (0.05% Tween-20 in PBS) on day 15 after immunization with CFA and PLP139-151 peptide. Mice were treated with lipids for 12, 24, or 48 hours and then sacrificed and perfused with 4% paraformaldehyde. Brains and spinal cords were embedded in paraffin and sectioned. TUNEL-positive cells were detected by using the In Situ Cell Death Kit, AP (Roche) according to the manufacturer's instructions.

B cells = assay: Proliferation of anti-IgM F(ab')2/anti-CD40-stimulated purified B cells; type: cell-based, mouse; conditions: 30 μg/ml lipid, anti-IgM F(ab')2 and anti-CD40, 48 hours
Protocol: Anti-IgM F(ab′)2 fragment/anti-CD40-stimulated purified B cells: We harvested spleens from naive C57BL/6 mice and used a B-cell isolation kit (Miltenyi Biotec) to negatively isolate B cells. We then stimulated 5×10^5 cells/ml of B cells with 5 μg/ml of each of soluble anti-IgM F(ab′)2 fragment (Jackson ImmunoResearch) antibody and anti-CD40 antibody (eBioscience) in the presence of 30 μg/ml of POPS, PGPC, azPC ester, or azPC.

[6] = 100 μg i.v. once paralysis developed, every other day, ten injections

CCCCCCCCCCCCCCCC(=O)OC[C@H](COP(=O)([O-])OCC[N+](C)(C)C)OC(=O)CCCC(=O)O [PGPC, 1-Palmitoyl-2-Glutaroyl-sn-Glycero-3-Phosphocholine]
IFN-γ secretion upon PLP139-151 stimulation ([1]; cells from PGPC-treated vs vehicle-treated EAE mice): secreted less IFN; also recorded: lower levels | TNF secretion upon PLP139-151 stimulation ([1]; splenocytes from PGPC-treated vs vehicle-treated EAE mice): lower levels | T-cell proliferation in response to MBPAc1-11 [2]: reduced T-cell proliferation | EAE severity, established disease ([3]; 100 μg i.v. from disease onset (10 days after immunization), five injections): attenuated EAE that was already established | EAE severity, established disease [3, 6]: ameliorate established EAE

CCCCCCCC/C=C\CCCCCCCC(=O)O[C@H](COC(=O)CCCCCCCCCCCCCCC)COP(=O)(O)OC[C@H](N)C(=O)O [POPS, 1-Palmitoyl-2-Oleoyl-sn-Glycero-3-[Phospho-L-Serine]]
T-cell proliferation in response to MBPAc1-11 [2]: reduced T-cell proliferation | EAE severity, established disease [3, 6]: ameliorate established EAE | increase in T-cell apoptosis [4]: > 5 fold | number of TUNEL-positive cells with lymphocyte morphology in brain and spinal cord [5]: increased the number of TUNEL-positive cells | proliferation of activated B cells (B cells): modestly suppressed proliferation

CCCCCCCCCCCCCCCC(=O)OC[C@H](COP(=O)([O-])OCC[N+](C)(C)C)OC(=O)CCCCCCCC(=O)O [azPC, 1-Palmitoyl-2-Azelaoyl-sn-Glycero-3-Phosphocholine]
T-cell proliferation in response to MBPAc1-11 [2]: reduced T-cell proliferation | EAE severity, established disease [3, 6]: ameliorate established EAE | increase in T-cell apoptosis [4]: > 4 fold | number of TUNEL-positive cells with lymphocyte morphology in brain and spinal cord [5]: increased the number of TUNEL-positive cells | proliferation of activated B cells (B cells): modestly suppressed proliferation
